According to US8541579B2, “Substituted diketopiperazines as oxytocin antagonists” (Glaxo Group Limited, priority 2001, dated 2013):

System: rats
Assay: Administration to rats p.o. for 4 days, toxicological effects
Assay type: in vivo
Settings: doses of up to 300 mg/kg p.o for 4 days
Source text: The compounds of the invention are essentially non toxic at therapeutically active doses.

**Q.** For `CC(C)C[C@@H]1C(=O)N[C@H](C2Cc3ccccc3C2)C(=O)N1[C@@H](C(=O)N(C)C)c1ccc(F)cc1F` [Example 10, (2R)-2-(2,4-difluorophenyl)-2-[(3R,6R)-3-(2,3-dihydro-1H-inden-2-yl)-6-isobutyl-2,5-dioxopiperazin-1-yl]-N,N-dimethylethanamide], which adverse toxicological effects is on record?
**A.** The adverse toxicological effects was “no adverse toxicological effects were observed”.
